The values below come from PubChem BioAssay (NCI).

Some test systems named below: NCI-H460 lung; SN12C renal; ACHN renal; PC-3 prostate; A549 NSCLC; M14 melanoma; SF-268 CNS; OVCAR-4 ovarian; U251 CNS; A498 renal.
What all share (assay): growth of human tumour cells (NCI), 48 h

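Dose response: 5 concentrations. Exposure: 48 h. Format: 96-well plates. Endpoint: linear interpolation; highest concentration if not reached. Abbreviation: GI50, concentration required for 50% inhibition of growth. At the TGI there is no net growth.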

With `CC(=O)Nc1ccc2c(c1)C(c1ccccc1Cl)=Nc1c(n[nH]c1C)N2`, the GI50 with NCI-H460 lung is 1.85 µM; in the test on SN12C renal it was 5.05 µM; in the test with ACHN renal, 6.19 µM; with PC-3 prostate, more than 25 µM; with A549 NSCLC, 4.46 µM; in the test with M14 melanoma, more than 25 µM. The GI50 in the test with SF-268 CNS was 3.01 µM; in the test with OVCAR-4 ovarian it was more than 15.9 µM; in the test on U251 CNS, 1.1 µM; in the test with A498 renal, 0.746 µM. Also, the TGI with NCI-H460 lung, in the test on SN12C renal, with ACHN renal, in the test on PC-3 prostate, with A549 NSCLC and in the test with M14 melanoma was more than 25 µM in each case. The TGI with SF-268 CNS is more than 21.4 µM; with OVCAR-4 ovarian it was more than 25 µM; in the test on U251 CNS, more than 25 µM; with A498 renal, 6.99 µM.
As to `C/C(=N\NC(=S)N1CCCCC1)c1ccccn1`, the GI50 was less than 0.0151 µM in the test on NCI-H460 lung; 0.29 µM in the test with SN12C renal; less than 0.0116 µM with ACHN renal; less than 0.01 µM in the test on PC-3 prostate; 0.0235 µM with A549 NSCLC; less than 0.0148 µM in the test on M14 melanoma. The GI50 in the test with SF-268 CNS was 0.0762 µM; with OVCAR-4 ovarian it was less than 0.01 µM; in the test with U251 CNS it was less than 0.0105 µM; in the test with A498 renal it was 0.228 µM. For the same compound, the TGI with NCI-H460 lung came out at 1.5 µM; with SN12C renal, 14.3 µM; in the test on ACHN renal, 7.34 µM; with PC-3 prostate, 12.6 µM; with A549 NSCLC, 4.14 µM; in the test with M14 melanoma it was 2.23 µM. Besides, the TGI turned out to be 12.3 µM in the test on SF-268 CNS, 4.57 µM in the test on OVCAR-4 ovarian, 10.6 µM in the test with U251 CNS and 2.32 µM in the test with A498 renal.
Consider `CS(=O)(=O)Nc1cncc(-c2ccc3ncnc(Nc4ccc(F)c(Cl)c4)c3c2)c1`, for which the GI50 in the test with NCI-H460 lung was 4.22 µM; in the test with SN12C renal, 2.6 µM; in the test with ACHN renal, 1.69 µM; in the test with PC-3 prostate, 2.69 µM; in the test on A549 NSCLC, 3.75 µM; in the test with M14 melanoma it was 3.33 µM. The GI50 was 2.63 µM in the test on SF-268 CNS, 4.96 µM with OVCAR-4 ovarian, 3.03 µM with U251 CNS and 0.57 µM in the test on A498 renal. The TGI is 16 µM in the test with NCI-H460 lung; 15.2 µM in the test with SN12C renal; more than 100 µM in the test with ACHN renal; 15 µM in the test on PC-3 prostate; 17.4 µM with A549 NSCLC; 15.1 µM with M14 melanoma. The TGI with SF-268 CNS amounted to 18.7 µM; in the test on OVCAR-4 ovarian, 96.6 µM; in the test on U251 CNS, 15.2 µM; in the test on A498 renal, 3.2 µM.
Consider `c1cc(NNc2cccc(-c3nn[nH]n3)c2)cc(-c2nn[nH]n2)c1`, for which the TGI in the test on NCI-H460 lung, in the test with SN12C renal, in the test on ACHN renal, in the test on PC-3 prostate, in the test with A549 NSCLC and in the test with M14 melanoma was more than 100 µM throughout. The TGI in the test with SF-268 CNS, with OVCAR-4 ovarian, with U251 CNS and in the test on A498 renal was more than 100 µM each time.
As for `O=c1[nH]c2ccccc2c2ccccc12`, the GI50 in the test with NCI-H460 lung is 70.1 µM; in the test on SN12C renal, more than 100 µM; in the test with ACHN renal it was more than 100 µM; with PC-3 prostate it was more than 100 µM; with A549 NSCLC, more than 100 µM; in the test with M14 melanoma, more than 100 µM. Moreover, the GI50 in the test on SF-268 CNS was more than 100 µM; with OVCAR-4 ovarian it was 60.7 µM; in the test on U251 CNS it was more than 100 µM; with A498 renal, 44.7 µM. The TGI in the test on NCI-H460 lung, in the test with SN12C renal, in the test on ACHN renal, in the test with PC-3 prostate, in the test on A549 NSCLC and in the test on M14 melanoma was more than 100 µM throughout. Moreover, the TGI in the test with SF-268 CNS, with OVCAR-4 ovarian, in the test with U251 CNS and with A498 renal was more than 100 µM throughout.
As for `COc1ccc(/C=C/C(=O)c2cc(OC)c(OC)c(OC)c2)cc1OCC(=O)Nc1nc2ccc(OC(F)(F)F)cc2s1`, the GI50 in the test on NCI-H460 lung is 2.43 µM; in the test on SN12C renal it was 1.74 µM; with ACHN renal it was 1.62 µM; in the test on PC-3 prostate, 3.14 µM; with A549 NSCLC it was 1.99 µM; with M14 melanoma, 1.72 µM. For the same compound, the GI50 is 1.2 µM with SF-268 CNS, 2.07 µM in the test with OVCAR-4 ovarian, 0.703 µM in the test on U251 CNS and 7.4 µM in the test with A498 renal. Further, the TGI in the test with NCI-H460 lung turned out to be 6.25 µM; in the test on SN12C renal, 4.67 µM; in the test with ACHN renal, 3.85 µM; with PC-3 prostate it was 7.82 µM; with A549 NSCLC, 4.7 µM; in the test with M14 melanoma, 4.52 µM. In addition, the TGI in the test with SF-268 CNS is 8.5 µM; in the test on OVCAR-4 ovarian, 5.14 µM; in the test with U251 CNS it was 2.58 µM; in the test with A498 renal, 31.7 µM.
